Experimental data from PubChem BioAssay AID330 (DTP/NCI, 2004).
“And” between values parts separate entries of the source, which are not always exact repeats. Equal values may be shown once. Inconclusive results and toxic doses are left out. Rule for the calls: active = survival T/C of 150% or more; inactive = T/C below 125% in these data.

System: P388 leukemia ip, CD2F1 mice, survival T/C
Assay: NCI In Vivo Anticancer Drug Screen. Data for tumor model P388 Leukemia (intraperitoneal) in CD2F1 (CDF1) mice
Conditions: endpoint: median survival time, higher = longer survival
Procedure, shortened: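 Mice carrying the transplanted tumor received test compound or vehicle. Survival was recorded in each group, and the value is the treated-group measurement divided by that of the vehicle-treated control group.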

[1] = dose: 12.5 mg/kg/injection, schedule: Q01DX009 (ip), vehicle: saline with Tween-80
[2] = dose: 25.0 mg/kg/injection, schedule: Q01DX009 (ip), vehicle: saline with Tween-80
[3] = dose: 25.0 mg/kg/injection, schedule: Q01DX009 (ip), vehicle: Klucel (hydroxypropylcellulose) (HPC)
[4] = dose: 50.0 mg/kg/injection, schedule: Q01DX009 (ip), vehicle: Klucel (hydroxypropylcellulose) (HPC)
[5] = dose: 100.0 mg/kg/injection, schedule: Q04DX003 (ip), vehicle: saline with Tween-80

Measured: T/C

COc1cc(C[C@H]2c3cc(OC)c(OC)cc3CCN2C)c(Oc2cc3c(cc2OC)-c2c(OC)c(OC)cc4c2[C@H](C3)N(C)CC4)cc1OC
inactive: dose: 2.5 mg/kg/injection, schedule: Q03HX016 (ip), vehicle: saline 90 % of control | dose: 2.5 mg/kg/injection, schedule: Q03HX024 (ip), vehicle: saline 95 % of control | dose: 5.0 mg/kg/injection, schedule: Q03HX008 (ip), vehicle: saline 91 % of control | dose: 5.0 mg/kg/injection, schedule: Q03HX016 (ip), vehicle: saline 100 % of control | dose: 5.0 mg/kg/injection, schedule: Q03HX024 (ip), vehicle: saline 95 % of control | dose: 6.25 mg/kg/injection, schedule: Q01DX009 (ip), vehicle: saline 90 % of control | dose: 10.0 mg/kg/injection, schedule: Q01DX009 (ip), vehicle: distilled water + Tween-80 96 % of control | dose: 10.0 mg/kg/injection, schedule: Q03HX008 (ip), vehicle: saline 95 % of control | dose: 10.0 mg/kg/injection, schedule: Q03HX016 (ip), vehicle: saline 100 % of control | dose: 10.0 mg/kg/injection, schedule: Q03HX024 (ip), vehicle: saline 95 % of control | dose: 12.5 mg/kg/injection, schedule: Q01DX009 (ip), vehicle: saline 104 % of control | dose: 12.5 mg/kg/injection, schedule: Q01DX009 (oral), vehicle: saline 100 % of control | dose: 20.0 mg/kg/injection, schedule: Q01DX009 (ip), vehicle: distilled water + Tween-80 92 % of control | dose: 20.0 mg/kg/injection, schedule: Q03HX008 (ip), vehicle: saline 100 % of control | dose: 20.0 mg/kg/injection, schedule: Q03HX016 (ip), vehicle: saline 100 % of control | dose: 20.0 mg/kg/injection, schedule: Q03HX024 (ip), vehicle: saline 100 % of control | dose: 25.0 mg/kg/injection, schedule: Q01DX009 (ip), vehicle: saline 109 % of control | dose: 25.0 mg/kg/injection, schedule: Q01DX009 (oral), vehicle: saline 100 % of control | dose: 25.0 mg/kg/injection, schedule: Q04DX003 (ip), vehicle: saline 100 % of control | dose: 25.0 mg/kg/injection, schedule: Q08DX002 (ip), vehicle: saline 100 % of control | dose: 40.0 mg/kg/injection, schedule: Q01DX009 (ip), vehicle: distilled water + Tween-80 92 % of control | dose: 40.0 mg/kg/injection, schedule: Q03HX008 (ip), vehicle: saline 100 % of control | dose: 40.0 mg/kg/injection, schedule: Q03HX016 (ip), vehicle: saline 109 % of control | dose: 40.0 mg/kg/injection, schedule: Q03HX024 (ip), vehicle: saline 95 % of control | dose: 50.0 mg/kg/injection, schedule: Q01DX001 (ip), vehicle: saline 91 % of control | dose: 50.0 mg/kg/injection, schedule: Q01DX009 (ip), vehicle: saline 104 % of control | dose: 50.0 mg/kg/injection, schedule: Q01DX009 (oral), vehicle: saline 100 % of control | dose: 50.0 mg/kg/injection, schedule: Q04DX003 (ip), vehicle: saline 100 % of control | dose: 50.0 mg/kg/injection, schedule: Q08DX002 (ip), vehicle: saline 100 % of control | dose: 80.0 mg/kg/injection, schedule: Q01DX009 (ip), vehicle: distilled water + Tween-80 101 % of control | dose: 80.0 mg/kg/injection, schedule: Q03HX008 (ip), vehicle: saline 100 % of control | dose: 100.0 mg/kg/injection, schedule: Q01DX001 (ip), vehicle: saline 91 % of control | dose: 100.0 mg/kg/injection, schedule: Q01DX001 (oral), vehicle: saline 104 % of control | dose: 100.0 mg/kg/injection, schedule: Q01DX009 (ip), vehicle: saline 100 % of control | dose: 100.0 mg/kg/injection, schedule: Q01DX009 (oral), vehicle: saline 100 % of control | dose: 100.0 mg/kg/injection, schedule: Q04DX003 (ip), vehicle: saline 109 % of control | dose: 100.0 mg/kg/injection, schedule: Q08DX002 (ip), vehicle: saline 100 % of control | dose: 200.0 mg/kg/injection, schedule: Q01DX001 (ip), vehicle: saline 91 % of control | dose: 200.0 mg/kg/injection, schedule: Q01DX001 (oral), vehicle: saline 95 % of control | dose: 200.0 mg/kg/injection, schedule: Q01DX009 (oral), vehicle: saline 95 % of control | dose: 200.0 mg/kg/injection, schedule: Q04DX003 (ip), vehicle: saline 109 % of control | dose: 200.0 mg/kg/injection, schedule: Q08DX002 (ip), vehicle: saline 100 % of control | dose: 400.0 mg/kg/injection, schedule: Q01DX001 (ip), vehicle: saline 91 % of control | dose: 400.0 mg/kg/injection, schedule: Q01DX001 (oral), vehicle: saline 95 % of control | dose: 400.0 mg/kg/injection, schedule: Q08DX002 (ip), vehicle: saline 100 % of control | dose: 800.0 mg/kg/injection, schedule: Q01DX001 (ip), vehicle: saline 100 % of control | dose: 800.0 mg/kg/injection, schedule: Q01DX001 (oral), vehicle: saline 95 % of control | dose: 1600.0 mg/kg/injection, schedule: Q01DX001 (oral), vehicle: saline 104 % of control

CN1CCc2c3n(c4ccccc24)C(=O)CCC31 (stereo not given)
inactive: dose: 6.25 mg/kg/injection, schedule: Q01DX009 (ip), vehicle: saline with Tween-80 120 % of control | [1] 120 % of control | [2] 120 % of control

Nc1nncc(-c2ccccc2)n1
inactive: [3] 97 % of control | [4] 97 % of control | dose: 100.0 mg/kg/injection, schedule: Q01DX009 (ip), vehicle: Klucel (hydroxypropylcellulose) (HPC) 96 % of control | dose: 200.0 mg/kg/injection, schedule: Q01DX009 (ip), vehicle: Klucel (hydroxypropylcellulose) (HPC) 110 % of control

O=C(O)CS(=O)(=O)N1CCOCC1
inactive: dose: 50.0 mg/kg/injection, schedule: Q01DX005 (ip), vehicle: Klucel (hydroxypropylcellulose) (HPC) 102 % of control | dose: 100.0 mg/kg/injection, schedule: Q01DX005 (ip), vehicle: Klucel (hydroxypropylcellulose) (HPC) 94 % of control

COc1cc2cc[n+]3c(c2cc1OC)-c1c2cc(OC)c(OC)cc2cc[n+]1CC3
inactive: [1] 100 % of control | [2] 97 % of control

C[N+]1(C)CCC(OC(=O)C(O)(c2ccccc2)C2CCCC2)C1 (stereo not given)
inactive: dose: 12.5 mg/kg/injection, schedule: Q01DX009 (ip), vehicle: Klucel (hydroxypropylcellulose) (HPC) 95 % of control | [3] 97 % of control | dose: 25.0 mg/kg/injection, schedule: Q04DX003 (ip), vehicle: saline with Tween-80 105 % of control | [4] 89 % of control and 95 % of control | dose: 50.0 mg/kg/injection, schedule: Q04DX003 (ip), vehicle: saline with Tween-80 102 % of control | [5] 99 % of control

O=C1c2ccccc2C(=O)c2c(NCCN3CCOCC3)ccc(NCCN3CCOCC3)c21
inactive: dose: 50.0 mg/kg/injection, schedule: Q01DX009 (ip), vehicle: saline with Tween-80 108 % of control | dose: 100.0 mg/kg/injection, schedule: Q01DX009 (ip), vehicle: saline with Tween-80 109 % of control | dose: 200.0 mg/kg/injection, schedule: Q01DX009 (ip), vehicle: saline with Tween-80 115 % of control | dose: 400.0 mg/kg/injection, schedule: Q01DX009 (ip), vehicle: saline with Tween-80 117 % of control

CC(=O)Nc1cc(NC(C)=O)cc(C(=O)O)c1
inactive: dose: 60.0 mg/kg/injection, schedule: Q01DX005 (ip), vehicle: Klucel (hydroxypropylcellulose) (HPC) 90 % of control | dose: 120.0 mg/kg/injection, schedule: Q01DX005 (ip), vehicle: Klucel (hydroxypropylcellulose) (HPC) 90 % of control | dose: 240.0 mg/kg/injection, schedule: Q01DX005 (ip), vehicle: Klucel (hydroxypropylcellulose) (HPC) 90 % of control

COc1cccc(C(=O)c2ccncc2)c1OC
inactive: dose: 12.5 mg/kg/injection, schedule: Q01DX009 (ip), vehicle: water 100 % of control | dose: 25.0 mg/kg/injection, schedule: Q01DX009 (ip), vehicle: water 100 % of control | dose: 50.0 mg/kg/injection, schedule: Q01DX009 (ip), vehicle: water 103 % of control | dose: 100.0 mg/kg/injection, schedule: Q01DX009 (ip), vehicle: water 104 % of control | dose: 200.0 mg/kg/injection, schedule: Q01DX009 (ip), vehicle: water 100 % of control

Nc1c(Br)cc2c(c1Br)Cc1cc(Br)ccc1-2
inactive: [5] 104 % of control | dose: 200.0 mg/kg/injection, schedule: Q04DX003 (ip), vehicle: saline with Tween-80 109 % of control | dose: 400.0 mg/kg/injection, schedule: Q04DX003 (ip), vehicle: saline with Tween-80 90 % of control
